As usually defined, the IC50 is the concentration that inhibits the measured activity by half. By melting point is commonly meant the temperature of the solid-liquid transition.

These results are taken from patent US10730840B2, “Substituted tetrahydroisoquinoline ethylbenzamide anti-cancer agents” (Florida A&M University, priority 2017, dated 2020).

Data set [1] deals with Ishikawa (endometrial) cancer cell line. The data set is described as follows: CellTiter-Glo antiproliferative activity, Ishikawa cell line. It counts as cell-based, human. To be noted: 72 h exposure, in the presence of 10 nM estradiol; for IC50: Homo sapiens, Ishikawa. An excerpt:
Numerous substituted THIQs were systematically synthesized employing molecular design and structure activity relationship studies (Suresh et al., (2014) Lett. Drug Design & Discov. 11: 428-436; Gangapuram et al., (2014) J. Cancer Sci. Ther. 6: 161-169). The compounds' cytotoxic effects on MCF-7 (estrogen receptor positive breast cancer) cell lines, MDA-MB-231 (estrogen receptor negative breast cancer) cell lines and Ishikawa cell lines using CellTiter-Glo (CTG) luminescent cell viability essay were studied. The tests were done on different concentrations of the compounds ranging from 0.01 to 100,000 nM on 5000 MCF-7 cells/well, on 5000 MDA-MB-231 cells/well and on 5000 Ishikawa cells/well. Drug exposed cells were incubated at 37° C. for three days followed by CTG assay. Then IC50 values were generated from Graph Pad Prism 4. […]
(§1) The antiproliferative activities of substituted tetrahydroisoquinolines 2a-2m, 3a-3l and 4a-4f were evaluated according to the procedure reported previously (Crouch et al., (1993) J. Immunol. Methods 160: 81-88).
(§2) Human MCF-7 and MDA-MB-231 breast cancer cell lines were purchased from the NCI. The human Ishikawa endometrial cancer cell line was purchased from Sigma Aldrich. All three cell lines were cultured in phenol red-free RPMI-1640 (Hyclone) (500 mL) supplemented with L-glutamine-dipeptide (Hyclone) (5 mL), and 10% fetal bovine serum (Atlanta Biologicals) (50 mL).
(§3) The cell lines were cultured and treated with compounds under study including the standard TAM ranging from 0.01 nM to 100,000 nM concentration in the presence of 10 nM estradiol using the previous reported method (Suresh et al., (2014) Lett. Drug Des. Discov. 11: 428-436).
(§4) The amount of ATP is determined using a system based on luciferase and D-luciferin resulting in light generation.
In general terms: ATP-based viability assays read luminescence as a measure of living cells.

The test system of data set [2] is MCF-7 (ER positive breast cancer cell line). The data set is described as follows: CellTiter-Glo antiproliferative activity, MCF-7 cell line. The format is cell-based, human. Conditions: for IC50 against MCF-7 cell line / IC50: 72 h exposure, in the presence of 10 nM estradiol; for antiproliferative activity against MCF-7 cell line in words: based on IC50 value; for IC50: Homo sapiens, MCF7, Table 1, read-out: IC50 MCF-7.
From the text: (§5) Numerous substituted THIQs were systematically synthesized employing molecular design and structure activity relationship studies (Suresh et al., (2014) Lett. Drug Design & Discov. 11: 428-436; Gangapuram et al., (2014) J. Cancer Sci. Ther. 6: 161-169). The compounds' cytotoxic effects on MCF-7 (estrogen receptor positive breast cancer) cell lines, MDA-MB-231 (estrogen receptor negative breast cancer) cell lines and Ishikawa cell lines using CellTiter-Glo (CTG) luminescent cell viability essay were studied. The tests were done on different concentrations of the compounds ranging from 0.01 to 100,000 nM on 5000 MCF-7 cells/well, on 5000 MDA-MB-231 cells/well and on 5000 Ishikawa cells/well. Drug exposed cells were incubated at 37° C. for three days followed by CTG assay. Then IC50 values were generated from Graph Pad Prism 4.
(§6) Chemistry: Several substituted tetrahydroisoquinolines 2d-2m, 3h, 3k, 3l, and 4a-4f were prepared according to three different procedures as shown in Schemes 1, 2 and 3 (FIGS. 2-4). […] The aminating agent 10 was prepared using a reported procedure (Tamura et al., (1972) J. Org. Chem. 40: 4133-4135). The amino salts of ring substituted 2-aminoisoquinolinium mesitylenesulfonates of general structure 11 used in the present study were prepared by the reaction of substituted isoquinolines and the aminating agent 10 as previously reported (Gangapuram et al., (2014) J. Cancer Sci. Ther. 6: 161-169). […] The aminating agent 13 was prepared using a reported procedure (Legault & Charette (2003) J. Org. Chem. 68: 7119-7122). The amino salts of ring substituted 2-aminoisoquinolinium compounds of general structure 14 were obtained with the reaction of the substituted isoquinolines and the aminating agent 13 in CH3CN heated at 50° C. for 24 hours. Without further purification, the salts were used to prepare the N-ylides by reaction with substituted acyl/sulfonyl chlorides. […] N-Oxidation of commercially available ring substituted THIQs followed by the reduction of the NO group using standard zinc/acetic acid led to the synthesis of N-amino THIQs.
as §1, §2, §3, §4

For data set [3], the system named is MDA-MB-231 (ER negative breast carcinoma cell line). The data set is described as follows: CellTiter-Glo antiproliferative activity, MDA-MB-231 cell line. It counts as cell-based, human. To be noted: 72 h exposure, in the presence of 10 nM estradiol; for IC50: Homo sapiens, MDA-MB-231, Table 1.
From the text: as §5, §6, §1, §2, §3

Data set [4] has as its system MCF-7, MDA-MB-231, and Ishikawa cell lines. The data set is described as follows: Antiproliferative activity, summary statements over the three cell lines. It counts as cell-based, human. To be noted: MCF-7, MDA-MB-231 and Ishikawa cell lines together.
From the text: as §5, §6, §1, §2, §3

The subject of data set [5] is microtubule network. To be noted: Gangapuram et al. (2014); cited from earlier work.
The mark [6] stands for this setting: Table 1, read-out: IC50 Ishikawa.

Entries after “also recorded” stand apart in the source; their conditions may differ. Like-named read-outs stand apart in the source and are kept apart here.

For `CCc1ccc(C(=O)NN2CCc3ccc(O)cc3C2)cc1` [Compound 2b], in data set [1], the “IC50 against Ishikawa cell line” value turned out to be 0.08 µg/mL. For the same compound, in data set [2], the “IC50 against MCF-7 cell line” value worked out at 0.2 µg/mL and the “antiproliferative activity against MCF-7 cell line in words” value is “very active”. Also, the “IC50 against MDA-MB-231 cell line” value in data set [3] is 0.13 µg/mL. In addition, in data set [4], the “antiproliferative activity in words” value is listed as “more active than the lead structure (1)”. Further, the microtubule-destabilizing activity result in data set [5] is reported as “potent microtubule-destabilizing agent”.

For the compound `CCc1ccc(C(=O)NN2CCc3cccc(O)c3C2)cc1` [Compound 2i, 4-Ethyl-N-(8-hydroxy-3,4-dihydroisoquinolin-2(1H)-yl) benzamide], in data set [1], the “IC50 against Ishikawa cell line” value was found to be 0.09 µg/mL. Further, in data set [2], the “IC50 against MCF-7 cell line” value was found to be 0.61 µg/mL and the “antiproliferative activity against MCF-7 cell line in words” value was “very active”. Also, in data set [2] (MCF-7 versus MDA-MB-231 IC50), the “selectivity towards ER(+) MCF-7 compared to ER(−) MDA-MB-231 cell lines” value is recorded as “significant selectivity; also recorded: reasonable selectivity”. Also, the “IC50 against MDA-MB-231 cell line” value in data set [3] was 1.36 µg/mL. Besides, the “antiproliferative activity in words” value in data set [4] is “active”.

In turn, `CCc1ccc(C(=O)Nc2cccc3c2CN(NC(=O)c2ccc(CC)cc2)CC3)cc1` [Compound 2j, N,N′-(3,4-dihydroisoquinoline-2,8(1H)-diyl)bis(4-ethylbenzamide)] had a melting point of 113.2 to 116.4 °C. For the same compound, the IC50 in data set [1] (setting [6]) worked out at 2.74 µg/mL. The 50% inhibitory concentration (IC50) in data set [2] is 9.35 µg/mL. Further, in data set [3], the IC50 was found to be 9.71 µg/mL. For the same compound, in data set [4], the “antiproliferative activity in words” value was “less active”.

Compound `CCc1ccc(C(=O)Nc2cccc3c2CCN(NC(=O)c2ccc(CC)cc2)C3)cc1` [Compound 3c, N,N′-(3,4-Dihydroisoquinoline-2, 5(1H)-diyl)bis(4-ethylbenzamide)] displayed a melting point of 216 to 218 °C. In addition, in data set [1] (setting [6]), the half-inhibitory concentration (IC50) amounted to 9.45 µg/mL. The IC50 in data set [2] was found to be 4.59 µg/mL. Further, the IC50 in data set [3] came out at 6.1 µg/mL. In addition, the “antiproliferative activity in words” value in data set [4] is “less active”.

In turn, `CCc1ccc(C(=O)NN2CCc3c(cccc3NC(C)=O)C2)cc1` [Compound 3d, N-(5-Acetamido-3,4-dihydroisoquinolin-2(1H)-yl)-4-ethylbenzamide] yielded a melting point of 295 to 297 °C. Also, the IC50 in data set [1] (setting [6]) is greater than 33.7 µg/mL. In addition, the IC50 in data set [2] is greater than 33.7 µg/mL. The IC50 in data set [3] is greater than 33.7 µg/mL. Moreover, the “antiproliferative activity in words” value in data set [4] is “completely inactive”.

Take `COc1ccc(S(=O)(=O)NN2CCc3c(cccc3OS(=O)(=O)c3ccc(OC)cc3)C2)cc1` [Compound 3l, 2-(4-Methoxyphenylsulfonamido)-1,2,3,4-tetrahydroisoquinolin-5-yl-4-methoxybenzene-sulfonate]: the melting point is 182 to 183 °C. In addition, the 50% inhibitory concentration (IC50) in data set [1] (setting [6]) is greater than 50.5 µg/mL. In addition, the IC50 in data set [2] was greater than 50.5 µg/mL. Moreover, the IC50 in data set [3] is greater than 50.5 µg/mL. Further, in data set [4], the “antiproliferative activity in words” value was “completely inactive”.

For the compound `CCc1ccc(C(=O)NN2CCc3cc(OC)c(OC)cc3C2C(C)C)cc1` (centres unmarked) [Compound 4c, 4-Ethyl-N-(1-isopropyl-6,7-dimethoxy-3,4-dihydroisoquinolin-2(1H)-yl)benzamide], the melting point lay within 162 to 163 °C. Also, the IC50 in data set [1] (setting [6]) was 15 µg/mL. Further, the IC50 in data set [2] is greater than 38.2 µg/mL. In addition, the IC50 in data set [3] was greater than 38.2 µg/mL. The “antiproliferative activity in words” value in data set [4] was “completely inactive”.

`CCc1ccc(C(=O)NN2CCc3cc(Cl)ccc3C2)cc1` [Compound 4e, N-(6-Chloro-3,4-dihydroisoquinolin-2(1H)-yl)-4-ethylbenzamide] had a melting point of 205 to 206 °C. Besides, in data set [1] (read-out: IC50 against Ishikawa cell line), the IC50 was less than 7.87 µg/mL. In data set [1] (setting [6]), the IC50 stood at 0.98 µg/mL. The IC50 in data set [2] is 2.49 µg/mL. Besides, the IC50 in data set [3] was 3.74 µg/mL.

With `CCc1ccc(C(=O)NN2CCc3cc(OC(=O)c4ccc(CC)cc4)ccc3C2C(=O)OC)cc1` (centres unmarked) [Compound 4f, Methyl-2-(4-ethylbenzamido)-6-((4-ethylbenzoyl)oxy)-1,2,3,4-tetrahydroisoquinoline-1-carboxylate], the melting point was in the range of 150 to 152 °C. For the same compound, the IC50 in data set [1] (setting [6]) stood at 45.6 µg/mL. In data set [2], the IC50 was greater than 48.6 µg/mL. Also, in data set [3], the IC50 was greater than 48.6 µg/mL. Besides, the “antiproliferative activity in words” value in data set [4] is “completely inactive”.
